From US20070128217A1 (priority 2003, published 2007)

Experiments:
[1] = tested on: recombinant human anti-SARS-CoV antibody 03-018; assay type: binding; design: Binding of antibody 03-018 to linear peptides of the N protein of SARS-CoV Urbani / Binding of antibody 03-018 to looped/cyclic peptides of the N protein of SARS-CoV Urbani: unit not given here
[2] = tested on: control sera (pooled serum of ten healthy LUMC hospital workers; commercial negative donor pooled serum from the Dutch bloodbank); assay type: binding, human; design: Binding of Control serum LUMC to linear peptides / Binding of Control serum Blood-bank to linear peptides / Binding of Control serum LUMC to looped peptides / Binding of Control Serum Blood-Bank to Looped peptides / Binding of Control serum LUMC to linear peptides of the protein M of SARS-CoV Urbani / Binding of Control serum Blood-bank to linear peptides of the protein M of SARS-CoV Urbani / Binding of Control serum LUMC to looped peptides of the protein M of SARS-CoV Urbani / Binding of Control Serum Blood-Bank to Looped peptides of the protein M of SARS-CoV Urbani: unit not given here
[3] = tested on: rabbit serum obtained by immunizing a rabbit with the SARS-CoV strain Frankfurt 1; assay type: binding; design: Binding of a rabbit serum to linear peptides / Binding of a rabbit serum to looped peptides / Rabbit serum linear peptides / Rabbit serum looped peptides / Binding of a rabbit serum to linear peptides of protein N of SARS-CoV Urbani (Rabbit serum linear peptides) / Binding of a rabbit serum to looped/cyclic peptides of protein N of SARS-CoV Urbani (Rabbit serum looped peptides): unit not given here
[4] = tested on: antibodies in sera from SARS patients (sera 1a, 1b, 2, 6, 37, 62, London, SARS-yellow, SARS-green); assay type: binding, human; design: Binding of serum 6 to linear peptides of protein X1 of SARS-CoV Urbani / Binding of serum 37 to linear peptides of protein X1 of SARS-CoV Urbani / Binding of serum 6 to looped/cyclic peptide (PEPSCAN-ELISA) / Binding of serum 37 to looped/cyclic peptide (PEPSCAN-ELISA) / Binding of serum 37 to looped/cyclic peptides of protein X1 of SARS-CoV Urbani / Binding of serum 6 to linear peptides of protein X2 / Binding of serum 37 to linear peptides of protein X2 / Binding of serum 37 to looped/cyclic peptides of protein X2 of SARS-CoV Urbani / Binding of serum 6 to linear peptides of protein M of SARS-CoV Urbani / Binding of serum 37 to linear peptides of protein M of SARS-CoV Urbani / Binding of serum 6 to looped/cyclic peptides of protein M of SARS-CoV Urbani / Binding of serum 37 to looped/cyclic peptides of protein M of SARS-CoV Urbani / Binding of serum 6 to linear peptides of protein X3 of SARS-CoV Urbani / Binding of serum 37 to linear peptides of protein X3 of SARS-CoV Urbani / Binding of serum 37 to looped/cyclic peptides of protein X3 of SARS-CoV Urbani / Binding of serum 6 to linear peptides of protein X4 of SARS-CoV Urbani / Binding of serum 37 to linear peptides of protein X4 of SARS-CoV Urbani / Binding of serum 37 to looped/cyclic peptides of protein X4 of SARS-CoV Urbani / Binding of serum 6 to linear peptides of protein X5 of SARS-CoV Urbani / Binding of serum 37 to linear peptides of protein X5 of SARS-CoV Urbani / Binding of serum 37 to looped/cyclic peptides of protein X5 of SARS-CoV Urbani / Binding of serum 6 to linear peptides of protein N of SARS-CoV Urbani / Binding of serum 37 to linear peptides of protein N of SARS-CoV Urbani / Binding of serum 6 to linear peptide (PEPSCAN-ELISA) / Binding of serum 1a to looped/cyclic peptides of protein N of SARS-CoV Urbani / Binding of serum 1b to looped/cyclic peptides of protein N of SARS-CoV Urbani / Binding of serum 2 to looped/cyclic peptides of protein N of SARS-CoV Urbani / Binding of serum 6 to looped/cyclic peptides of protein N of SARS-CoV Urbani / Binding of serum 37 to looped/cyclic peptides of protein N of SARS-CoV Urbani / Binding of serum 62 to looped/cyclic peptides of protein N of SARS-CoV Urbani / Binding of serum London to looped/cyclic peptides of protein N of SARS-CoV Urbani / Binding of serum SARS-green to looped/cyclic peptides of protein N of SARS-CoV Urbani: unit not given here

Sequence | Binding of antibody 03-018 to linear peptides of the N protein of SARS-CoV Urbani [1] | Binding of antibody 03-018 to looped/cyclic peptides of the N protein of SARS-CoV Urbani [1] | Binding of Control Serum Blood-Bank to Looped peptides [2] | Binding of Control serum Blood-bank to linear peptides [2] | Binding of Control serum LUMC to linear peptides [2] | Binding of Control serum LUMC to looped peptides [2] | Binding of a rabbit serum to linear peptides of protein N of SARS-CoV Urbani (Rabbit serum linear peptides) [3] | Binding of a rabbit serum to looped/cyclic peptides of protein N of SARS-CoV Urbani (Rabbit serum looped peptides) [3] | Binding of serum 1a to linear peptides of protein N of SARS-CoV Urbani [4] | Binding of serum 1a to looped/cyclic peptides of protein N of SARS-CoV Urbani [4] | Binding of serum 1b to linear peptides of protein N of SARS-CoV Urbani [4] | Binding of serum 1b to looped/cyclic peptides of protein N of SARS-CoV Urbani [4] | Binding of serum 2 to linear peptides of protein N of SARS-CoV Urbani [4] | Binding of serum 2 to looped/cyclic peptides of protein N of SARS-CoV Urbani [4] | Binding of serum 6 to looped/cyclic peptides of protein N of SARS-CoV Urbani [4] | Binding of serum 37 to looped/cyclic peptides of protein N of SARS-CoV Urbani [4] | Binding of serum 62 to looped/cyclic peptides of protein N of SARS-CoV Urbani [4] | Binding of serum London to looped/cyclic peptides of protein N of SARS-CoV Urbani [4] | Binding of serum SARS-green to looped/cyclic peptides of protein N of SARS-CoV Urbani [4] | Binding of serum SARS-yellow to looped/cyclic peptides of protein N of SARS-CoV Urbani [4] | other results
GGPTDSTDNNQNGGR | 0.1 | 0.2 | 0.5 | 0.7 | 0.8 | 0.5 | 0.1 | 0.1 | 0.3 | 0.3 | 0.1 | 0.1 | 0.3 | 0.4 | 0.2 | 0.5 | 0.3 | 0.3 | 0.2 | 0.2 | Binding of serum 6 to linear peptides of protein N of SARS-CoV Urbani [4]: 0.2; Binding of serum 37 to linear peptides of protein N of SARS-CoV Urbani [4]: 0.7; Binding of serum 62 to linear peptides of protein N of SARS-CoV Urbani [4]: 0.7; Binding of serum London to linear peptides of protein N of SARS-CoV Urbani [4]: 0.6; Binding of serum SARS-green to linear peptides of protein N of SARS-CoV Urbani [4]: 0.6; Binding of serum SARS-yellow to linear peptides of protein N of SARS-CoV Urbani [4]: 0.6
GGRNGARPKQRRPQG | 0.2 | 0.2 | 0.5 | 0.7 | 0.6 | 0.5 | 0.2 | 0.8 | 0.3 | 0.2 | 0.2 | 0.1 | 0.3 | 0.2 | 0.2 | 0.4 | 0.3 | 0.2 | 0.2 | 0.2 | Binding of serum 6 to linear peptides of protein N of SARS-CoV Urbani [4]: 0.2; Binding of serum 37 to linear peptides of protein N of SARS-CoV Urbani [4]: 0.7; Binding of serum 62 to linear peptides of protein N of SARS-CoV Urbani [4]: 0.8; Binding of serum London to linear peptides of protein N of SARS-CoV Urbani [4]: 0.5; Binding of serum SARS-green to linear peptides of protein N of SARS-CoV Urbani [4]: 2.6; Binding of serum SARS-yellow to linear peptides of protein N of SARS-CoV Urbani [4]: 0.6
GKEELRFPRGQGVPI | 0.1 | 0.3 | 0.9 | 0.9 | 0.8 | 0.9 | 0.1 | 0.6 | 0.3 | 0.5 | 0.1 | 0.4 | 0.3 | 0.8 | 0.3 | 0.9 | 1.1 | 0.6 | 0.9 | 0.7 | Binding of serum 6 to linear peptides of protein N of SARS-CoV Urbani [4]: 0.2; Binding of serum 37 to linear peptides of protein N of SARS-CoV Urbani [4]: 0.7; Binding of serum 62 to linear peptides of protein N of SARS-CoV Urbani [4]: 0.7; Binding of serum London to linear peptides of protein N of SARS-CoV Urbani [4]: 0.5; Binding of serum SARS-green to linear peptides of protein N of SARS-CoV Urbani [4]: 0.6; Binding of serum SARS-yellow to linear peptides of protein N of SARS-CoV Urbani [4]: 0.6
GKGQQQQGQTVTKKS | 0.1 | 0.2 | 0.6 | 0.9 | 1.0 | 0.7 | 0.2 | 0.4 | – | 1.4 | – | 0.6 | – | 0.7 | 0.4 | 0.5 | 0.6 | 0.4 | 0.6 | 0.5 | Binding of serum 1a to linear peptide (PEPSCAN-ELISA) [4]: 0.3; Binding of serum 1b to linear peptide (PEPSCAN-ELISA) [4]: 0.1; Binding of serum 2 to linear peptide (PEPSCAN-ELISA) [4]: 0.3; Binding of serum 6 to linear peptide (PEPSCAN-ELISA) [4]: 0.3; Binding of serum 37 to linear peptide (PEPSCAN-ELISA) [4]: 0.7; Binding of serum 62 to linear peptide (PEPSCAN-ELISA) [4]: 0.7; Binding of serum London to linear peptide (PEPSCAN-ELISA) [4]: 0.5; Binding of serum SARS-green to linear peptide (PEPSCAN-ELISA) [4]: 0.2; Binding of serum SARS-yellow to linear peptide (PEPSCAN-ELISA) [4]: 0.7
